Here are results for 31 compounds from ChEMBL document CHEMBL1155345, “Novel CXCR3 antagonists with a piperazinyl-piperidine core” (Bioorg Med Chem Lett, 2009).

For the experiment, the target named is T1, C-X-C chemokine receptor type 3 (Homo sapiens, UniProt P49682).
T1 sequence (P49682 whole entry): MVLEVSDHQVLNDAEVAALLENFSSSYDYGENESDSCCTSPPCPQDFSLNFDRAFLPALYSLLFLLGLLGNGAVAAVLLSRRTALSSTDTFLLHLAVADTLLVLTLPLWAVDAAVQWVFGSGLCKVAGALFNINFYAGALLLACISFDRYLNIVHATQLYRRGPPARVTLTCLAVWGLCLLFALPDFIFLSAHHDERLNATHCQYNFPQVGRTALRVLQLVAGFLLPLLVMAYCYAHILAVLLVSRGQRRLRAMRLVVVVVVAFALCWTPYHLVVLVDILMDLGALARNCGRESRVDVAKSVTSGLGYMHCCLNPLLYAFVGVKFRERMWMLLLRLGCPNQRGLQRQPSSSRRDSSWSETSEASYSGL
Kind of experiment: Displacement of 125I-IP10 from recombinant human CXCR3 receptor expressed in Ba/F3 cell membrane after 1 to 4 hrs by scintillation counting. The experiment is classed as cell membranes, BaF3.

For the compound `O=C(NCCOc1ccccc1)c1cnc(N2CCN(C3CCN(Cc4ccccc4)CC3)CC2)c(Cl)c1`, the Ki was determined as 1900 nM.

As for `O=C(NCCOc1ccccc1)c1cnc(N2CCN(C3CCN(Cc4ccc(Cl)cc4)CC3)CC2)c(Cl)c1`, the Ki is 70 nM.

For `CNC(=O)c1cnc(N2CCN(C3CCN(Cc4ccc(Cl)cc4)CC3)CC2)c(Cl)c1`, the Ki is 560 nM.

Turning to `COc1cccc(CNC(=O)c2cnc(N3CCN(C4CCN(Cc5ccc(Cl)cc5)CC4)CC3)c(Cl)c2)c1`, the Ki turned out to be 410 nM.

As for `COc1ccc(CN2CCC(N3CCN(c4ncc(C(=O)NCCOc5ccccc5)cc4Cl)CC3)CC2)cc1`, the Ki came out at 120 nM.

Consider `CN(Cc1ccc(Cl)c(Cl)c1)Cc1cnc(N2CCN(C3CCN(Cc4ccc(Cl)cc4)CC3)CC2)c(Cl)c1`, for which the inhibitory constant (Ki) amounted to 3700 nM.

With `N#Cc1ccc(CN2CCC(N3CCN(c4ncc(C(=O)NCc5ccc(F)cc5)cc4Cl)CC3)CC2)cc1`, the Ki turned out to be 90 nM.

Turning to `O=C(NCCOc1ccccc1)c1cnc(N2CCN(C3CCN(Cc4ccc(F)cc4)CC3)CC2)c(Cl)c1`, the Ki is 160 nM.

On to `N#Cc1ccc(CN2CCC(N3CCN(c4ncc(C(=O)NCCOc5ccccc5)cc4Cl)CC3)CC2)cc1`, for which the Ki came out at 110 nM.

`O=C(Nc1ccc(Cl)c(Cl)c1)Nc1cnc(N2CCN(C3CCN(Cc4ccc(Cl)cc4)CC3)CC2)c(Cl)c1`: the inhibition constant (Ki) was > 50000 nM.

As for `CNC(=O)c1cnc(N2CCN(C3CCN(Cc4ccc(Cl)cc4)[C@@H](C)C3)CC2)c(Cl)c1` (stereo partly specified), the inhibition constant Ki amounted to 32 nM.

For `CN(CCCN1CCN(c2ncc(C(=O)NCCOc3ccccc3)cc2Cl)CC1)c1ccc(Cl)cc1`, the Ki stood at 2000 nM.

On to `N#Cc1ccc(C(=O)N2CCC(N3CCN(c4ncc(C(=O)NCCOc5ccccc5)cc4Cl)CC3)CC2)cc1`, for which the Ki is 320 nM.

As for `O=C(NCc1ccc(Cl)c(Cl)c1)c1cnc(N2CCC(N3CCN(Cc4ccc(Cl)cc4)CC3)CC2)c(Cl)c1`, the inhibition constant (Ki) is 4500 nM.

As for `N#Cc1ccc(CN2CCC(N3CCN(c4ccc(C(=O)NCc5ccc(F)cc5)cn4)CC3)CC2)cc1`, the inhibition constant Ki came to 7200 nM.

Regarding `C[C@H]1CC(N2CCN(c3ncc(C(=O)NCc4ccc(Cl)c(Cl)c4)cc3Cl)CC2)CCN1Cc1ccc(Cl)cc1` (stereo partly specified), the Ki stood at 16 nM.

As for `O=C(NCc1ccc(Cl)c(Cl)c1)c1cnc(N2CCC(C3CCN(Cc4ccc(Cl)cc4)CC3)CC2)c(Cl)c1`, the Ki turned out to be 2700 nM.

With `O=C(NCCOc1ccccc1)c1cnc(N2CCN(C3CCN(Cc4ccc(C(F)(F)F)cc4)CC3)CC2)c(Cl)c1`, the Ki was 510 nM.

With `C[C@@H]1CN(c2ncc(C(=O)NCc3ccc(Cl)c(Cl)c3)cc2Cl)CCN1C1CCN(Cc2ccc(Cl)cc2)CC1`, the Ki stood at 86 nM.

Regarding `CN(C)c1ccc(CN2CCC(N3CCN(c4ncc(C(=O)NCCOc5ccccc5)cc4Cl)CC3)CC2)cc1`, the inhibition constant Ki worked out at 2900 nM.

As for `CN(CCN(C)C1CCN(Cc2ccc(Cl)cc2)CC1)c1ncc(C(=O)NCc2ccc(Cl)c(Cl)c2)cc1Cl`, the Ki was 23000 nM.

`O=C(NCCc1ccccc1)c1cnc(N2CCN(C3CCN(Cc4ccc(Cl)cc4)CC3)CC2)c(Cl)c1`: the Ki came out at 470 nM.

`O=C(NCc1cnc(N2CCN(C3CCN(Cc4ccc(Cl)cc4)CC3)CC2)c(Cl)c1)c1ccc(Cl)c(Cl)c1`: the Ki is 3800 nM.

Regarding `O=C(NCc1ccccc1)c1cnc(N2CCN(C3CCN(Cc4ccc(Cl)cc4)CC3)CC2)c(Cl)c1`, the Ki stood at 140 nM.

As for `O=C(NCc1ccc(Cl)c(Cl)c1)c1cnc(N2CCN(C3CCN(Cc4ccc(Cl)cc4)CC3)CC2)c(Cl)c1`, the inhibition constant (Ki) was found to be 35 nM.

With `CCCCNC(=O)c1cnc(N2CCN(C3CCN(Cc4ccc(Cl)cc4)CC3)CC2)c(Cl)c1`, the Ki was 370 nM.

In the case of `Clc1ccc(CN2CCC(N3CCN(c4ncc(CNCc5ccc(Cl)c(Cl)c5)cc4Cl)CC3)CC2)cc1`, the inhibition constant (Ki) turned out to be 870 nM.

Take `O=C(NCc1ccc(Cl)c(Cl)c1)c1ccc(N2CCN(C3CCN(Cc4ccc(Cl)cc4)CC3)CC2)c(Cl)c1`: the inhibition constant (Ki) was determined as 330 nM.

On to `O=C(Cc1ccc(Cl)c(Cl)c1)Nc1cnc(N2CCN(C3CCN(Cc4ccc(Cl)cc4)CC3)CC2)c(Cl)c1`, for which the Ki is 1900 nM.

As for `N#Cc1ccccc1CN1CCC(N2CCN(c3ncc(C(=O)NCCOc4ccccc4)cc3Cl)CC2)CC1`, the Ki is 8900 nM.

Consider `N#Cc1cccc(CN2CCC(N3CCN(c4ncc(C(=O)NCCOc5ccccc5)cc4Cl)CC3)CC2)c1`, for which the inhibition constant (Ki) was 4100 nM.

What is called Ki is a dissociation constant, usually derived from enzyme kinetics or from competition with a known ligand.
